# Assay results from US7745426B2, “Compositions and methods for reducing the risk of epileptic occurrence and/or for treatment of seizure disorders” (D-Pharm Ltd., priority 2003, dated 2010).
# Counter-ions that a name gives are not always drawn.
# What was measured:
# Format in all cases: in vivo
# [1] = system: epilepsy-prone (EP) subline of BALB/c mice, PTZ-induced convulsions; test: PTZ-induced convulsive reaction in genetically epilepsy-prone (EP) mice, compounds given i.p.; conditions: for anticonvulsive effect against PTZ-induced convulsive reaction (FIG. 1): 10 mg/kg i.p. 30 minutes prior to PTZ i.p., recorded 30 min
# Procedure: The animal model used is epilepsy-prone (EP) subline of mice that was selectively bred from a strain of BALB/c mice (Dolina et al. in Epilepsia (1993) 43: 33-42).
# EP mice were subjected to seizure induction by intraperitoneal (i.p.) injection of pentylenetetrazol (PTZ) 50-60 mg/kg dissolved in saline. The EP animals were i.p. treated with the tested compound(s) 10 to 60 minutes prior to the PTZ injection.
# The tested compounds were the following: • 1) NC-001 10 mg/kg • 2) Pyridoxine hydrochloride (=Vitamin B6) 10 mg/kg • 3) GABA 10 mg/kg • 4) Separately injected Vitamin B6 and GABA, 10 mg/kg each. A group of EP animals injected with PTZ only, with no further treatment, served as a control group.
# The intensity of the PTZ-induced convulsive reaction for each group was evaluated in scores according to the following scale:
# (§1) Intensity of PTZ-induced Convulsive Reaction in Scores • 1. A few myoclonic jerks (less than 10) • 2. Less than 20 jerks • 3. Less than 30 jerks • 4. 30-40 jerks/jerks and jumps/short partial convulsions. • 5. Uninterrupted jerks/series of jerks and jumps/repeated partial convulsions • 5.5 Abortive generalized convulsions • 6. Single generalized convulsive attack • 7. Series of jerks, jumps & single generalized convulsive attack; single generalized convulsions with further motor excitation • 7.5 Severe prolonged generalized convulsions • 8. Repeated generalized convulsions • 9. Series of jerks/jumps & repeated convulsions • 10. Status epilepticus • 12. Lethal convulsions
# In each group of EP animals, convulsive reactions were recorded during the first 30 minutes following administration of the seizure inducer.
# Genetically epilepsy-prone (EP) BALB/c mice, 3-5 animals in a group, were i.p. administered with either 5 mg/kg, 7.5 mg/kg or 10 mg/kg of NC-001 thirty minutes prior to i.p. injection of PTZ (60 mg/kg). The numbers of seizures were then recorded for each animal during 30 minutes following the PTZ injection. The intensity of convulsive reaction was scored for each of the treatment groups.
# [2] = system: epilepsy-prone (EP) mice, PTZ-induced convulsions; test: PTZ-induced convulsive reaction in EP mice, NC-001 orally administered; conditions: 30 mg/kg orally 30 min prior to PTZ 50 mg/kg i.p.; four female EP mice vs eight vehicle
# From the text: as §1
# In order to test the ability of the vitamin B6-GABA conjugated compound to cross the GI barrier, epilepsy-prone (EP) mice were orally administered with NC-001.
# A group of 12 female EP mice were i.p. treated with 50 mg/kg PTZ to induce seizures. Thirty minutes prior to PTZ administration, NC-001 at the dose of 30 mg/kg was orally administered to four of the animals (=treated group), the other eight animals were treated with vehicle only and served as a control group. All twelve animals were scored, during 30 minutes following i.p. PTZ administration, for intensity of convulsive reactions (see table of convulsive reaction scores as appear above in Example 4).
# [3] = system: audiogenic sensitive rats, sound-induced convulsions; test: Sound-induced convulsions in audiogenic sensitive rats chronically treated with PHT with or without pyridoxine; conditions: 100 db sound
# From the text: Phenyloin (PHT) is prescribed for medication of generalized […] generalized convulsions, complex partial seizures and simple partial seizures. […] In the experiments, intensity of 100 db sound stimulation was used. […] The second group included pyridoxine-untreated rats. […] Eleven rats were used in each group.
# [4] = EP mice, 10 mg/kg i.p. 30 minutes prior to PTZ, six tested mice
compound,measurement,setting,value
"Cc1ncc(COC(=O)CCCN)c(CO)c1O [NC-001, [5-Hydroxy-6-methyl-4-(hydroxymethyl)-pyrid-3-yl]methyl-4-aminobutyrate, dihydrochloride]",EP mice that exhibited generalized convulsions,"[1]; 5 mg/kg i.p. 30 min prior to PTZ 60 mg/kg i.p., FIG. 2",two of the four
same,effect on generalized PTZ-induced convulsions,"[1]; 7.5 mg/kg i.p. 30 min prior to PTZ 60 mg/kg i.p., three EP mice, numerous jerks in all, FIG. 2",prevented generalized PTZ-induced convulsions in all three treated EP mice
same,effect on generalized convulsive reactions,"[1]; 10 mg/kg i.p. 30 min prior to PTZ 60 mg/kg i.p., single jerks in one mouse, FIG. 2",completely prevented generalized convulsive reactions
same,dose dependence of anti-convulsive effect,"[1]; 5, 7.5, 10 mg/kg i.p., PTZ 60 mg/kg, FIG. 2",dose-dependent anti-convulsive protective effect
same,anticonvulsive effect against PTZ-induced convulsive reaction (FIG. 1),[1]; EP mice,almost a complete protection against the convulsive symptoms
same,animals that had only few convulsive jerks,[1]; [4],two
same,mice that did not show any convulsive reaction,[1]; [4],Four out of the six
same,"protective effect, intensity of convulsive reactions (FIG. 3)",[2],significant protective effect
"O=C1NC(=O)C(c2ccccc2)(c2ccccc2)N1 [PHT, 5,5-Diphenyl-2,4-imidazolidinedione]",number of tests with sound-induced convulsive reactions,"[3]; 22 tests per group, chronic PHT, days 13 and 14",6
same,tests resulting in sound-induced convulsions (percent of 22 tests),"[3]; PHT 75 mg/kg then 12 x 50 mg/kg once a day, tested days 13 and 14, 11 rats per group",27.3%
"NCCCC(=O)O [GABA, γ-aminobutyric acid, reference compound]",anticonvulsive effect against PTZ-induced convulsive reaction (FIG. 1),[1]; EP mice,did not show any anticonvulsive effect
"Cc1ncc(CO)c(CO)c1O.Cl [Vitamin B6, Pyridoxine hydrochloride, reference compound]",anticonvulsive effect against PTZ-induced convulsive reaction (FIG. 1),[1]; EP mice,some protection against PTZ-induced generalized convulsions
